pIC50, pKi: −log10 of the molar value.
What was measured:
[1] = target: T1, α-L-fucosidase (EC 3.2.1.51) (Bos taurus, UniProt Q2KIM0); assay: Initial screening assay for enzyme inhibition, α-L-fucosidase; type: biochemical, bovine kidney; details: α-L-fucosidase, 2% MeOH, read-out: % Enzyme activity relative to control
T1 construct: purchased Sigma; host or cells: bovine kidney
T1 sequence (Q2KIM0 23-468): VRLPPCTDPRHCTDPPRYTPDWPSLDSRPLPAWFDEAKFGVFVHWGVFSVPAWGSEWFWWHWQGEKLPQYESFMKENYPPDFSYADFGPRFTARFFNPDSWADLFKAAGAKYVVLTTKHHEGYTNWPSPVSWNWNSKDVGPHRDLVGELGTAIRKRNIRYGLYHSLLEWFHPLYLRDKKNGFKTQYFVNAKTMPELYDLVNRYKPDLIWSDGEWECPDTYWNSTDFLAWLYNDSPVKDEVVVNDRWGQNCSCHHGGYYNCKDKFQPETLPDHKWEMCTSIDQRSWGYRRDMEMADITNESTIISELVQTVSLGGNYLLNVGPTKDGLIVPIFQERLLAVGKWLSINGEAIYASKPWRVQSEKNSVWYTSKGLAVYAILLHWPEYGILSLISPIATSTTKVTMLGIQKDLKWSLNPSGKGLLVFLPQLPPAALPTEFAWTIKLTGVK
Description: (§1) Optically pure enantiomers of avarol were synthetically prepared. A survey of potential inhibitory activity by avarol against twelve glycosidases was performed according to general procedures^15 (see experimental section). The enzymes tested and their biological sources are listed in Table 1 along with any pertinent references found for a given enzyme. In order to determine a working range for enzyme and substrate concentrations in which the rate of product formation was linear and steady-state kinetics were applicable, initial rate studies with varying substrate concentrations were performed in the absence of inhibitor. The Michaelis constants (Km 's) and Vmax values for these enzymes were determined from these plots using standard graphical analysis procedures as described in ref. 17 and are summarized in Table 2.
(§2) Enzymatic Assays. Piperazine-N,N'-bix-(2-ethanesulfonic acid)(PIPES) buffer, enzymes, and substrates were purchased from Sigma and used as received. Buffer solutions and enzymes (desiccated) were stored at 4° C. p-Nitrophenyl glycoside substrates were stored desiccated at -20° C. Enzyme inhibition assays and initial rate studies were carried out with the appropriate p-nitrophenyl glycoside substrates following the general procedure of Kajimoto et al., J. Am. Chem. Soc. 113:6187 (1991) with the exception that amyloglucosidase (EC 3.2,1.3, Asp. niger) was assayed following the method of Saul et al., Arch. Biochem. Biophys. 221:593 (1983). Assays were performed in a Perkin-Elmer Lambda Array 3840 Spectrophotometer using the built-in drive method (resolution=0.25, average=8) in a quartz cuvette (1 cm pathlength). Background absorption spectra were acquired using millipore filtered water as medium. Steady-state kinetics were maintained by adjusting the amount of enzyme used in each assay so that less than 10% of the substrate was converted to product for the duration of the reaction. Reactions were monitored at 400 nm (the absorbance of the p-nitrophenol product, ε=3204.5 M^-1 cm^-1) for a given amount of time and the initial rates were calculated and expressed as μmols p-nitrophenol formed per unit enzyme per second. Absportion readings for control reactions were corrected for the small baseline absorbance at time zero. Small discrepancies between time zero absorbance readings in a given inhibition assay and a time zero reading in a control assay were used to correct the overall absorbance change calculated in the inhibition assay. […]
(§3) Typical assay: A 1.5-mL quartz cuvette was charged with 940 μL of PIPES-NaOAc buffer solution (pH 6.56), 20 μL of inhibitor solution, and 20 μL of enzyme solution. […] The reaction was monitored at 400 nm for 1 min and the absorbance change was used to calculate the initial hydrolysis rate. […]

[2] = test system: β-glucosidase (EC 3.2.1.21); assay: Initial screening assay for enzyme inhibition, β-glucosidase; type: biochemical, almonds; details: 20 μM inhibitor, 2% MeOH
Description: as §1
(§4) Enzymatic Assays. […] Reactions were monitored at 400 nm (the absorbance of the p-nitrophenol product, ε=3204.5 M^-1 cm^-1) for a given amount of time and the initial rates were calculated and expressed as μmols p-nitrophenol formed per unit enzyme per second. Absportion readings for control reactions were corrected for the small baseline absorbance at time zero. Small discrepancies between time zero absorbance readings in a given inhibition assay and a time zero reading in a control assay were used to correct the overall absorbance change calculated in the inhibition assay. […]

[3] = target: T2, α-D-mannosidase (jack bean) (Canavalia ensiformis, UniProt C0HJB3); assay: IC50 determination against α-D-mannosidase; type: biochemical; details: hot substrate solutions
T2 construct: purchased Sigma; host or cells: jack beans
Description: Enzymatic assays with a α-D-mannosidase (jack bean) were complicated by the higher Km of the enzyme (2.04 mM) requiring higher substrate concentrations and the relative insolubility of the .rho.-nitrophenyl mannoside substrate in aqueous media. The assay had to be performed using hot solutions of the substrate which were pipetted with some expected difficulty. Nonetheless, IC50 values of >40 μM and ~10 μM were obtained for the (+)- and (-)-enantiomers of avarol respectively.
as §4, with “Assays. Piperazine-N,N'-bix-(2-ethanesulfonic acid)(PIPES) buffer, enzymes, and substrates were purchased from Sigma and used as received. Buffer solutions and enzymes (desiccated) were stored at 4° C. p-Nitrophenyl glycoside substrates were stored desiccated at -20° C.” for “Assays.”

[4] = target: T3, α-glucosidase (brewer's yeast) (Saccharomyces cerevisiae, UniProt P53341); assay: Lineweaver-Burk analysis of inhibition of α-glucosidase; type: biochemical; details: replot of Lineweaver-Burk slopes, linear extrapolation; pH 6.56, 37° C.
T3 construct: purchased Sigma; host or cells: brewer's yeast
Source text: Initial screening assays with the enantiomeric avarols indicated significant activity by these compounds against only two of the twelve enzymes studies. […] This can occur when the two species compete for the same site or nearby sites on the enzyme. The equilibria that describe competitive inhibition are shown below. [drawing 3]
The equilibria describing this phenomenon are shown below. [drawing 4] The α factor represents the amount by which KS changes when I binds to the enzyme. The overall equilibrium constant for the formation of ESI remains the same regardless of which path was taken in its formation. Since the ES and ESI complexes are equally efficient in producing product, Vmax remains unchanged and Km is increased in the presence of inhibitor.
as §4

[5] = target: T4, β-xylosidase (EC 3.2.1.37) (Aspergillus niger, UniProt O00089); assay: Initial screening assay for enzyme inhibition, β-xylosidase; type: biochemical; details: 2% MeOH, read-out: % Enzyme activity relative to control
T4 construct: purchased Sigma; host or cells: Aspergillus niger
Description: as §1, §2, §3

[6] = test system: α-galactosidase (EC 3.2.1.22); assay: Initial screening assay for enzyme inhibition, α-galactosidase (E. coli); type: biochemical, Escherichia coli; details: 2% MeOH
Description: as §1, §2, §3

T2 sequence (C0HJB3 1-562 limits assumed): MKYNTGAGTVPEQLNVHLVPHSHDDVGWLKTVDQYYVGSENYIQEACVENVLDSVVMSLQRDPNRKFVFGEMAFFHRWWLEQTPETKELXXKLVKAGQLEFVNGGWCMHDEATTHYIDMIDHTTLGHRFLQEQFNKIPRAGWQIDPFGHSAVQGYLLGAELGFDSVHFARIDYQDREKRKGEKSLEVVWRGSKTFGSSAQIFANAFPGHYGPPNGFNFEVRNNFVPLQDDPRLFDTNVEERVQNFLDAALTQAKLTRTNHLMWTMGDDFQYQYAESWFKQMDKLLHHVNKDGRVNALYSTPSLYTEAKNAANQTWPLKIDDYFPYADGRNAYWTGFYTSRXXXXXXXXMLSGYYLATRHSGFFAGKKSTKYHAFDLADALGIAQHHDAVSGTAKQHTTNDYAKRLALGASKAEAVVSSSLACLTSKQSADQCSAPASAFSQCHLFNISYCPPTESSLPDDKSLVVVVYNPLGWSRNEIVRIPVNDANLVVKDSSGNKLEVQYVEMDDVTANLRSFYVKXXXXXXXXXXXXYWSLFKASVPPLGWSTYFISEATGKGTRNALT
T2 sequence (C0HJB3 563-981 limits assumed): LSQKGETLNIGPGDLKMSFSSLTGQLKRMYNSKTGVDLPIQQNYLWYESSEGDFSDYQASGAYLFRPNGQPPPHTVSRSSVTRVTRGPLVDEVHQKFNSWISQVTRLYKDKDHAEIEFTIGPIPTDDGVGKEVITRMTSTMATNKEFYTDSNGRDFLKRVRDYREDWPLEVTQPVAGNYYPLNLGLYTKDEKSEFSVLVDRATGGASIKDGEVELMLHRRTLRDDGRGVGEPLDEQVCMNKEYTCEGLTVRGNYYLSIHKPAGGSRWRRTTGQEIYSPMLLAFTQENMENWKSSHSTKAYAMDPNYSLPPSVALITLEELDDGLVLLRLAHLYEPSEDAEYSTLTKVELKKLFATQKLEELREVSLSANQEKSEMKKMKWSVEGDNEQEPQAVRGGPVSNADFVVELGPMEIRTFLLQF
T3 sequence (P53341 whole entry): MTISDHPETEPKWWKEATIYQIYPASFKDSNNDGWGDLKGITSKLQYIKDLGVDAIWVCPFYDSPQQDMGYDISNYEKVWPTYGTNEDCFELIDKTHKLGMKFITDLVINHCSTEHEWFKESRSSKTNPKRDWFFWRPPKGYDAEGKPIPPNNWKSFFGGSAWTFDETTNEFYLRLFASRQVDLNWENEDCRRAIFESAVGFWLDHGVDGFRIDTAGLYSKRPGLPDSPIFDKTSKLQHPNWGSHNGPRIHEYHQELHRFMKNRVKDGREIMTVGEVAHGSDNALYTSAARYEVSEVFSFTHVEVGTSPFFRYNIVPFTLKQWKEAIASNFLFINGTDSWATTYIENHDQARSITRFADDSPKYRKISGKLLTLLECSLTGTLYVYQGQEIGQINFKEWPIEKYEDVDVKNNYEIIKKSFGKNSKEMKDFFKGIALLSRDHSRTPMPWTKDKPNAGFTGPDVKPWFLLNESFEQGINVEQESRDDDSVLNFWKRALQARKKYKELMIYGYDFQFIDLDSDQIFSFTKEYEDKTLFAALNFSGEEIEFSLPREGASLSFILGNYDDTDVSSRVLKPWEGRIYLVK
T4 sequence (O00089 27-804): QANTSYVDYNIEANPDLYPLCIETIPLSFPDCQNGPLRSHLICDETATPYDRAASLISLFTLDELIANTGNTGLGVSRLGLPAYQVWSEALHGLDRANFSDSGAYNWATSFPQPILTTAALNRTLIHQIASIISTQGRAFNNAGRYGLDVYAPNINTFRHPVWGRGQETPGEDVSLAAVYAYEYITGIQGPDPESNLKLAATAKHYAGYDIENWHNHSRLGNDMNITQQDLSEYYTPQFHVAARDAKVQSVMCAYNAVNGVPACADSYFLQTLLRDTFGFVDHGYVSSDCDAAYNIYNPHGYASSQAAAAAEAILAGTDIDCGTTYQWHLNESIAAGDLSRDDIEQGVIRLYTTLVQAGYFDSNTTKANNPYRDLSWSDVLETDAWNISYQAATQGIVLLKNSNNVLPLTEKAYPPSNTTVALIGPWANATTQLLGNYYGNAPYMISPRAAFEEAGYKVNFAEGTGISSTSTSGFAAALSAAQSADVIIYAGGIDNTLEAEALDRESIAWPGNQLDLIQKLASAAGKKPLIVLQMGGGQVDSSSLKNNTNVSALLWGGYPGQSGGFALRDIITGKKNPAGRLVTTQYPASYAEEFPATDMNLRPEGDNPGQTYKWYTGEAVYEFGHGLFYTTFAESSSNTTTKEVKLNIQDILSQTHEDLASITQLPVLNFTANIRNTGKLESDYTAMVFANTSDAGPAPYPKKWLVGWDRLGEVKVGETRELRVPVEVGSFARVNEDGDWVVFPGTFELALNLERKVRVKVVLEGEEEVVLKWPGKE

SMILES	remaining activity at 40 µM ([1]; 40 μM inhibitor) [%]	% Enzyme activity relative to control [2] [%]	pIC50 [3]	pKi [4]	remaining activity at 40 µM ([5]; 40 μM inhibitor) [%]	% Enzyme activity relative to control ([6]; 40 μM inhibitor) [%]	remaining activity at 20 µM ([1]; 20 μM inhibitor) [%]	remaining activity at 20 µM ([5]; 20 μM inhibitor) [%]	% Enzyme activity relative to control ([6]; 20 μM inhibitor) [%]
CC1=CCC[C@H]2[C@](C)(Cc3cc(O)ccc3O)[C@@H](C)CC[C@]12C [(+)-avarol, (+)-Avarol]	101	102	< 4.40	4.60	100	90			
CC1=CCC[C@@H]2[C@@](C)(Cc3cc(O)ccc3O)[C@H](C)CC[C@@]12C [(-)-avarol]		96	~5.00	5.02			108	91	94

From patent US6075057A, “Inhibition of carbohydrates metabolism by quinone compounds” (priority 1997, dated 2000)
